# How the values were obtained:
# [1] = system: Colo 205 chemo-sensitive human colonic adenocarcinoma cell line; experiment: MTT cytotoxicity assay, Colo 205; assay type: cell-based; conditions: for IC50: 72 h, MTT; for S.I. MRC-5/Colo 205: ratio of the indicated IC50 values
# Procedure: (§1) Human colonic adenocarcinoma cell lines Colo 205 doxorubicin-sensitive (ATCC-CCL-222) and Colo 320/MDR-LRP multidrug resistant expressing ABCB1 (MDR1)-LRP (ATCC-CCL-220.1) were purchased from LGC Promochem (Teddington, UK). […] Cell lines were incubated at 37 °C, in a 5% CO2, 95% air atmosphere. The semi-adherent human colon cancer cells were detached with Trypsin-Versene (EDTA, Sigma, Steinheim, Germany) solution for 5 min at 37 °C. MRC-5 human embryonal lung fibroblast cell lines (ATCC CCL-171) were purchased from LGC Promochem. […] The cell lines were incubated at 37 °C, in a 5% CO2, 95% air atmosphere.
# (§2) In the study MRC-5 non-cancerous human embryonic lung fibroblast and human colonic adenocarcinoma cell lines (doxorubicin-sensitive Colo 205 and multidrug resistant Colo 320 colonic adenocarcinoma cells) were used to determine the effect of compounds on cell growth. The effects of increasing concentrations of compounds on cell growth were tested in 96-well flat-bottomed microtiter plates. The stock solutions of the compounds were prepared in DMSO, and in the final samples the DMSO content was always lower than 1%. The compounds were diluted in a volume of 100 μL of medium.
# (§3) In case of the colonic adenocarcinoma cells, the two-fold serial dilutions of compounds were prepared in 100 μL of RPMI 1640, horizontally. The semi-adherent colonic adenocarcinoma cells were treated with Trypsin-Versene (EDTA) solution. They were adjusted to a density of 1 × 10^4 cells in 100 μL of RPMI 1640 medium, and were added to each well, with the exception of the medium control wells. The final volume of the wells containing compounds and cells was 200 μL.
# (§4) The culture plates were incubated at 37 °C for 72 h; at the end of the incubation period, 20 μL of MTT (Sigma) solution (from a stock solution of 5 mg/mL) were added to each well. After incubation at 37 °C for 4 h, 100 μL of sodium dodecyl sulfate (SDS) (Sigma) solution (10% in 0.01 M HCl) were added to each well and the plates were further incubated at 37 °C overnight. Cell growth was determined by measuring the optical density (OD) at 540/630 nm with Multiscan EX ELISA reader (Thermo Labsystems, Cheshire, WA, USA). […] Curves were fitted by Prism software (GraphPad Software Inc., San Diego, CA, USA) using the sigmoidal dose-response model (comparing variable and fixed slopes). The IC50 values were obtained from at least 3 independent experiments.
# [2] = system: Enterococcus faecalis ATCC 29212; experiment: MIC determination (CLSI broth microdilution); assay type: cell-based; conditions: Gram-positive, ATCC 29212, 18 h
# Procedure: (§5) Wild-type Escherichia coli K-12 AG100 strain [argE3 thi-1 rpsL xyl mtl Δ(gal-uvrB) supE44] expressing the AcrAB TolC EP at its basal level and Klebsiella pneumoniae ATCC 49,619 Gram-negative strains were studied in the experiments. Staphylococcus aureus ATCC 43,300 methicillin-resistant (MRSA) strain and Enterococcus faecalis ATCC 29,212 strain were used as Gram-positive strains in the assays. MIC values of the complexes were determined in 96-well plates based on the Clinical and Laboratory Standard Institute guidelines (CLSI guidelines). The stock solutions of the compounds (dissolved in DMSO using 10 mM concentration) were diluted in 100 μL of Mueller Hinton Broth. Then 10^−4 dilution of an overnight bacterial culture in 100 μL of medium was added to each well, with the exception of the medium control wells.
# [3] = system: Staphylococcus aureus ATCC 43300 methicillin-resistant (MRSA); experiment: MIC determination (CLSI broth microdilution); assay type: cell-based; conditions: Gram-positive, MRSA ATCC 43300, 18 h
# Procedure: as §5
# [4] = system: Escherichia coli K-12 AG100; experiment: MIC determination (CLSI broth microdilution); assay type: cell-based; conditions: Gram-negative, AG100, 18 h
# Procedure: as §5
# [5] = system: Klebsiella pneumoniae ATCC 49619; experiment: MIC determination (CLSI broth microdilution); assay type: cell-based; conditions: Gram-negative, ATCC 49619, 18 h
# Procedure: as §5
# [6] = system: MRC-5 normal human embryonal lung fibroblast cells; experiment: MTT cytotoxicity assay, MRC-5; assay type: cell-based; conditions: 72 h
# Procedure: as §1, §2, §3, §4
# [7] = system: Colo 320 multidrug resistant human colonic adenocarcinoma cell line; experiment: MTT cytotoxicity assay, Colo 320; assay type: cell-based; conditions: for IC50: 72 h, MTT; for S.I. MRC-5/Colo 320: ratio of the indicated IC50 values
# Procedure: as §1, §2, §3, §4
# physchem = experiment: physchem
# Procedure: The solution speciation studies of complexes 1–4 were performed using UV-vis spectrophotometry and pH-potentiometry in the presence of 200 mM chloride ions.
# (§6) Titrations were performed in a carbonate-free KOH solution (0.20 M). The exact concentration of HCl and KOH solutions was determined by pH-potentiometric titrations.
# (§7) The path length (l) was usually 1 cm, and 2, 5, 20 or 50 mm cells were used occasionally. Equilibrium constants (proton dissociation, stability constants, conditional stability constants (K’7.4) for the formation of mim adducts) and the individual spectra of the species were calculated with the computer program PSEQUAD [55]. The spectrophotometric titrations were performed in aqueous solution of the complexes at 25.0 ± 0.1 °C at an ionic strength of 0.20 M (KCl). Spectrum of the solution of 200 μM complex upon addition of one or two equivalents of its own ligand or phen was also measured at pH 7.4. UV-vis spectra recorded for the complexes as a function of chloride concentrations or PTA (in case of the chlorido complexes) were used to investigate the co-ligand exchange processes at pH 7.4. […] In some cases, the measurements were performed in the presence of 1–2% (Cl^−/PTA exchange reactions) or 6–8% (v/v) (interaction of mim with complexes 2, 4) DMSO.
# [8] = system: HeLa 229 human cervix carcinoma cells; experiment: MTT cytotoxicity in HeLa 229 cells (maximum non-toxic concentration); conditions: 48 h
# Procedure: (§8) HeLa 229 cells (ATCC) and Vero cells (ATCC) were cultured in minimal essential medium (MEM) (Sigma, Steinheim, Germany) with Earle salts supplemented with 10% heat-inactivated fetal bovine serum (FBS) (Gibco; ThermoFisher Scientific, Inc., Waltham, MA, USA), 2 mM L-glutamine, 1× non-essential amino acids, 8 mM HEPES, 25 μg/mL gentamycin and 1 µg/mL fungisone. The cells were incubated for 1 h at room temperature to reduce the edge effect and then overnight at 37 °C, 5% CO2 to obtain a 90% confluent cell layer.
# (§9) The density of cells was 4 × 10^4 cells/well in 100 µL of MEM with Earle salts supplemented with 10% heat-inactivated FBS, 2 mM L-glutamine, 1× MEM vitamins, 1× non-essential amino acids, 0.005% Na-pyruvate, 25 µg/mL gentamycin, 1 µg/mL fungisone). The plates were incubated for 1 h room temperature and then overnight at 37 °C, 5% CO2. Next day, when the cells reached a ~90% confluency, the medium was supplemented with the serial 2-fold dilutions of the complexes in three parallel wells for each concentration. […] After 24 h incubation for Vero cells and 48 h incubation for HeLa cells, 10 µL of the MTT (Sigma, Steinheim, Germany) labelling reagent (final concentration 0.5 mg/mL) was added to each well and the plate was incubated for 4 h at 37 °C, 5% CO2. After the incubation, 100 µL of the solubilisation solution (10% SDS in 1 M HCl) was added into each well, and the plate was allowed to stand overnight in the incubator at 37 °C, 5% CO2.
# Vero cells = experiment: MTT cytotoxicity in Vero cells (maximum non-toxic concentration); conditions: 24 h
# Procedure: The antiviral effect of complexes against HSV-2 was screened using Vero cells (originally isolated from kidney epithelial cells) to host the growing viruses.
# as §8, §9
# [9] = target: ABCB1 (P-glycoprotein) efflux pump (Homo sapiens, UniProt P08183); experiment: Rhodamine 123 uptake/retention fluorescence assay (flow cytometry) in Colo 320 cells
# Procedure: It is important to note, that the resistance of this cell line is primarily mediated by the overexpression of the ABC-transporter P-glycoprotein, which pumps out xenobiotics from the cytosol. […] This dye is membrane-permeable and is rapidly taken up by the cells; therefore, it can be effectively used for the screening of efflux pump inhibiting compounds. […] Then the fluorescence accumulation ratios (FAR) were calculated (Figure 1) according to the equation given in the Materials and Methods section. Verapamil was used as a reference inhibitor compound.
# This fluorescence-based detection system uses verapamil (a first-generation, competitive EPI) as reference inhibitor. […] The tested compounds were added at different concentrations (2 and 20 µM; from 1 and 10 mM stock solutions, respectively) and the samples were incubated for 10 min at room temperature.
# The parameters evaluated from flow cytometric experiments are forward scatter count (FSC, provides information about cell size); side scatter count (SSC, proportional to cell granularity or internal complexity); mean fluorescence of the cells (FL-1) and the computed FAR and FAR quotients (Table S1).
# [10] = Solution stability and speciation (UV-vis, 1H-NMR, pH-potentiometry); conditions: PBS’, pH 7.4, 2% DMSO, up to 24 h
# Procedure: In order to confirm our prediction, time-dependent UV-visible (UV-vis) spectra were recorded for complexes 5–8 at pH 7.4 in aqueous solution (in modified phosphate buffered saline (PBS) buffer—PBS’) and in Eagle’s minimum essential medium (EMEM) used for the cytotoxicity studies in the presence of 2% (v/v) dimethyl sulfoxide (DMSO). […] Additionally, ^1H-NMR spectra were recorded for more water-soluble complexes 6–8.
# In order to compare the stability of 1 and 3 at physiological pH, a serial dilution was made and UV-vis spectra were recorded in a wide concentration range (10 μM–3 mM) (Figure S10).
# as §6, §7
# ^1H-NMR stability studies were carried out on a Bruker Avance III HD 500 MHz instrument. All ^1H-NMR spectra were recorded on samples containing 10% (v/v) D2O with the WATERGATE water suppression pulse scheme using DSS internal standard. Stability of complexes 6–8 was checked over time by ^1H-NMR spectroscopy at 500 μM in PBS’ or in EMEM (with 10% (v/v) DMSO-d6).
# Sequence of ABCB1 (P-glycoprotein) efflux pump (P08183 whole entry): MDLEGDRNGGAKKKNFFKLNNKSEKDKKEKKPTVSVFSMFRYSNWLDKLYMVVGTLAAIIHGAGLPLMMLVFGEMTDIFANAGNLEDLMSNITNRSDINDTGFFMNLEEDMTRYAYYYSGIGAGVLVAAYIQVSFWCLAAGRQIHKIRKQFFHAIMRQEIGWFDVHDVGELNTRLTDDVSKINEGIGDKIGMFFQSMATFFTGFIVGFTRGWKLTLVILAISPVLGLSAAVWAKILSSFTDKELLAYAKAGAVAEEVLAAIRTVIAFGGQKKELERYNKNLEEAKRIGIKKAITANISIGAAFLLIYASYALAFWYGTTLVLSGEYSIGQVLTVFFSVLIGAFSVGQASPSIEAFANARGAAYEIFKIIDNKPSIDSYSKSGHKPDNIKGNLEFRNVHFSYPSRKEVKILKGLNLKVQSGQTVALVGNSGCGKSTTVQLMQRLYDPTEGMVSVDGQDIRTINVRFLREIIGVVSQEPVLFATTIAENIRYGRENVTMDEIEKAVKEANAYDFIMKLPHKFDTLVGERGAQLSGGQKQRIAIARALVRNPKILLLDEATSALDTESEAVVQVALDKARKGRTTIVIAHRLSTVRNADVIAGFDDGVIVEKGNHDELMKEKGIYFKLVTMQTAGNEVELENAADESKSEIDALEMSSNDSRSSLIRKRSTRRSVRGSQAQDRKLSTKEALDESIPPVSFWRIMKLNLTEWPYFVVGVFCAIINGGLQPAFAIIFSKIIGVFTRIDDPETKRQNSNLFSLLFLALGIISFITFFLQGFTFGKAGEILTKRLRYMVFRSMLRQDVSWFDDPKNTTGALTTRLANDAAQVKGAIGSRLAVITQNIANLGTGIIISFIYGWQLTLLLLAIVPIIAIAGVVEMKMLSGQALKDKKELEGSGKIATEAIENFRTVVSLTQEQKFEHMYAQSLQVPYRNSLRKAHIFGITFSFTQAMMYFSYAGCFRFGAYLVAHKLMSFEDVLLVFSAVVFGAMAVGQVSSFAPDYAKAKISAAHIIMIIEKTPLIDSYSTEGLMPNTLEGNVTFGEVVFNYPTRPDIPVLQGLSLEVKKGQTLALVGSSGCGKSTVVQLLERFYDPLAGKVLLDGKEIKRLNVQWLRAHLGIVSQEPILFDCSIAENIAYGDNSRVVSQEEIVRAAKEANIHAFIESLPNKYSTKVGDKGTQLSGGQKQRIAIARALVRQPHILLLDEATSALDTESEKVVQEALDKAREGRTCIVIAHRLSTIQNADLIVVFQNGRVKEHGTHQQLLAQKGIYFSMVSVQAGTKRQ
SMILES,IC50 [1] [µM],MIC E. faecalis [2] [µM],MIC S. aureus [3] [µM],MIC E. coli [4] [µM],MIC K. pneumoniae [5] [µM],IC50 [6] [µM],IC50 [7] [µM],S.I. MRC-5/Colo 205 [1],S.I. MRC-5/Colo 320 [7],further results
"Cc1ccc(C(C)C)cc1.[Cl][Ru]([Cl])[PH]12CN3CN(CN(C3)C1)C2 [RAPTA-C, [Ru(η^6-p-cymene) (PTA)Cl2], reference compound]",> 100,>100,>100,>100,>100,> 100,> 100,,,
"On1ccc2ccccc2c1=S [HHiQT, 2-hydroxyisoquinoline-1(2H)-thione]",,,,,,,,,,pKa (physchem): 4.63 ± 0.08
"N.N.[Cl][Pt][Cl] [cisplatin, reference compound]",29.8 ± 1.2,>100,>100,>100,>100,0.88 ± 0.09,5.58 ± 0.7,0.03,0.16,
Cc1ccc(C(C)C)cc1.[Cl-].[O-]c1c(I)cc(Cl)c2cccnc12.[Ru+2] [complex 5],21 ± 2.4,12.5,25,>100,>100,2.95 ± 0.71,13.7 ± 0.85,0.14,0.21,"maximum non-toxic concentration, HeLa 229 [8]: 25 µM; concentrations at which maximum cytotoxicity was observed, Vero (Vero cells): 12.5 to 100 µM; maximum non-toxic concentration, Vero (Vero cells): 6.25 µM; FAR fluorescence accumulation ratio ([9]; Colo 320, 2 μM): 6.19; FAR quotient (FAR related to that of 20 μM verapamil) ([9]; Colo 320, 2 μM): 128.7%; FSC forward scatter count ([9]; Colo 320, 2 μM): 1917; SSC side scatter count ([9]; Colo 320, 2 μM): 840; FAR fluorescence accumulation ratio ([9]; Colo 320, 20 μM): 3.66; FAR quotient (FAR related to that of 20 μM verapamil) ([9]; Colo 320, 20 μM): 76.0%; FSC forward scatter count ([9]; Colo 320, 20 μM): 1950; SSC side scatter count ([9]; Colo 320, 20 μM): 877; FL-1 mean fluorescence of the cells ([9]; Colo 320, rhodamine 123, 2 μM): 32.7; FL-1 mean fluorescence of the cells ([9]; Colo 320, rhodamine 123, 20 μM): 19.3; FAR value ([9]; Colo 320, tested at 2 μM and 20 μM): above 2; stability in PBS’ at pH 7.4, time-dependent UV-vis spectra [10]: No characteristic UV-vis spectral changes within 24 h"
